These results are taken from article PMC4160187 (2014).

What all share (assay): UV-vis Soret titration (A404)
Test [1] concerns CatG4 (DNA, G4) TGGGTAGGGCGGGTTGGGAAA
Conditions: 20 mM K+; 40 mM HEPES pH 8.0, 1% DMF, 0.05% Triton X-100, 20°C; heme 0.5 µM.

The subject of test [2] is r(G4C2)4 (RNA, G4) GGGGCCGGGGCCGGGGCCGGGGC
The conditions noted are these: 20 mM K+; 40 mM HEPES pH 8.0, 1% DMF, 0.05% Triton X-100, 20°C; heme 0.5 µM; text also ~3 µM.

Test [3] relates to d(G4C2)4 (DNA, G4) GGGGCCGGGGCCGGGGCCGGGGC
Conditions: 20 mM K+; 40 mM HEPES pH 8.0, 1% DMF, 0.05% Triton X-100, 20°C; heme 0.5 µM; weaker than r(G4C2)4.

In test [4] the test system is r(C4G2)4 (RNA, other) GGCCCCGGCCCCGGCCCCGGCCCC
The conditions noted are these: 20 mM K+; 40 mM HEPES pH 8.0, 1% DMF, 0.05% Triton X-100, 20°C; heme 0.5 µM; up to 20 µM RNA.

In test [1], `C=CC1=C(C)C2=Cc3c(C=C)c(C)c4[n]3[Fe]([Cl])[n]3c(c(C)c(CCC(=O)O)c3=CC3=NC(=C4)C(C)=C3CCC(=O)O)=CC1=N2` registered a dissociation constant Kd of less than 500 nM. Further, the KD in test [2] turned out to be 3100 nM. In addition, the binding entry is listed as “yes” in test [3] and “no” in test [4].
